From patent US12550898B2, “Herbicide combinations comprising glufosinate and carfentrazone-ethyl” (BASF SE, priority 2020, dated 2026)

Tests used:
Chenopodium album = experiment: Greenhouse post-emergence herbicidal activity on Chenopodium album; format: in vivo; conditions: 0.654 g ai/ha
Excerpt: (§1) For the post-emergence treatment, the test plants were first grown to 3 to 4 inch (7.6 to 10.2 cm) tall, and only then treated. Here, the herbicidal compositions were suspended or emulsified in water as distribution medium and sprayed using finely distributing nozzles.
(§2) The herbicide compounds applied in the examples were used as commercially available formulations which have been diluted with deionized water to a suitable concentration.
(§3) Carfentrazone (commercial product name: Aim) was used as an emulsifiable concentrate having an active ingredient concentration of 240 g/l. Glufosinate (commercial product name: Liberty) was used as an aqueous soluble liquid of glufosinate ammonium having an active ingredient concentration of 280 g/l. Adjuvants of ammonium sulfate (AMS) and non-ionic surfactant (NIS) were added in all treatments. AMS and NIS were AMS Liquid and Induce at rates of 1680 g/ha and 0.25% (v/v), respectively.
(§4) The test period extended over 28 days after treatment (DAT). During this time, the plants were tended and their response to the individual treatments was evaluated.
(§5) The evaluation for the damage caused by the chemical compositions was carried out using a scale from 0 to 100%, compared to the untreated control plants. Here, 0 means no damage and 100 means complete destruction of the plants.
(§6) The plants used in the greenhouse experiments belonged to the following species:
(§7) 22 ff. E=X+Y−(X·Y/100) • where X=effect in percent using carfentrazone at an application rate a; • Y=effect in percent using glufosinate at application rate b; • E=expected effect (in %) of carfentrazone plus glufosinate at application rates a+b.
(§8) The value E corresponds to the effect (plant damage or injury) which is to be expected if the activity of the individual compounds is just additive. If the observed effect is higher than the value E calculated according to Colby, a synergistic effect is present.

Echinochloa crus-galli = experiment: Greenhouse post-emergence herbicidal activity on Echinochloa crus-galli; format: in vivo; conditions: 0.654 g ai/ha, scale 0-100, AMS + NIS added
Excerpt: as §1, §2, §3, §4, §5, §6, §7, §8

Structure (SMILES): CCOC(=O)C(Cl)Cc1cc(-n2nc(C)n(C(F)F)c2=O)c(F)cc1Cl (stereo not drawn) [Carfentrazone, carfentrazone-ethyl]
- Solo Carfentrazone % activity (Chenopodium album; 7 DAT, scale 0 (no damage) to 100 (complete destruction), AMS + NIS added): 30%
- Solo Carfentrazone % activity (Chenopodium album; 14 DAT, scale 0-100, AMS + NIS added): 30%
- Solo Carfentrazone % activity (Chenopodium album; 21 DAT, scale 0-100, AMS + NIS added): 35%
- Solo Carfentrazone % activity (Echinochloa crus-galli; 7 DAT): 30%
- Solo Carfentrazone % activity (Echinochloa crus-galli; 14 DAT): 18%
- Solo Carfentrazone % activity (Echinochloa crus-galli; 21 DAT): 25%
